Laboratory results: ChEMBL document CHEMBL1201862, “PubChem BioAssay data set” (2004)
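Cultured in 96-well plates, cells were exposed to test compound for 48 hours across five concentrations. Abbreviation: GI50, concentration required for 50% inhibition of growth.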 Activity calls are given as the source filed them. Cut-off read from the data, not from the text of the source: active = GI50 up to about 1.1 µM and inactive = higher.

Assays:
Experiment in all cases: NCI tumour cell line growth inhibition, 48 h
OVCAR-8 = tested on: OVCAR-8
HOP-62 = tested on: HOP-62
KM12 = tested on: KM12
M14 = tested on: M14
RXF 393 = tested on: RXF 393
NCI-H23 = tested on: NCI-H23
SR = tested on: SR
SK-OV-3 = tested on: SK-OV-3
HCT-116 = tested on: HCT-116
A549 = tested on: A549
HOP-92 = tested on: HOP-92
SK-MEL-5 = tested on: SK-MEL-5
DMS-114 = tested on: DMS-114
786-0 = tested on: 786-0
IGROV-1 = tested on: IGROV-1
Malme-3M = tested on: Malme-3M
A498 = tested on: A498
NCI-H226 = tested on: NCI-H226

Compound | GI50 (OVCAR-8) | GI50 (HOP-62) | GI50 (KM12) | GI50 (M14) | GI50 (RXF 393) | GI50 (NCI-H23) | GI50 (SR) | GI50 (SK-OV-3) | GI50 (HCT-116) | GI50 (A549) | GI50 (HOP-92) | GI50 (SK-MEL-5) | GI50 (DMS-114) | GI50 (786-0) | GI50 (IGROV-1) | GI50 (Malme-3M) | GI50 (A498) | GI50 (NCI-H226)
NC1=NNC(=O)c2nnc3c(C(=O)O)cnn3c2S1 | > 100 µM (inactive) | > 100 µM (inactive) | > 100 µM (inactive) | > 100 µM (inactive) | > 100 µM (inactive) | > 100 µM (inactive) | > 100 µM (inactive) | > 100 µM (inactive) | > 100 µM (inactive) | > 100 µM (inactive) | > 100 µM (inactive) | > 100 µM (inactive) | > 100 µM (inactive) | > 100 µM (inactive) | > 100 µM (inactive) | > 100 µM (inactive) |  | 
CCOC(=O)[C@H]1CSC[C@@H](C(=O)OC)N1 | > 100 µM (inactive) | > 100 µM (inactive) | > 100 µM (inactive) | > 100 µM (inactive) | > 100 µM (inactive) | > 100 µM (inactive) | > 100 µM (inactive) | > 100 µM (inactive) | > 100 µM (inactive) | > 100 µM (inactive) |  | > 100 µM (inactive) | > 100 µM (inactive) | > 100 µM (inactive) | > 100 µM (inactive) | > 100 µM (inactive) | > 100 µM (inactive) | 
O=C1CCCc2c(O)ccc(O)c21 | > 100 µM (inactive) | > 100 µM (inactive) | > 100 µM (inactive) | > 100 µM (inactive) | > 100 µM (inactive) | > 100 µM (inactive) | 28.3 µM (inactive) | > 100 µM (inactive) | > 100 µM (inactive) | > 100 µM (inactive) |  | > 100 µM (inactive) | 19.9 µM (inactive) | > 100 µM (inactive) | > 100 µM (inactive) | > 100 µM (inactive) | > 100 µM (inactive) | > 100 µM (inactive)
NC(=S)N/N=C1/C(=O)N(c2ccccc2)C(=O)C1C(=O)Nc1ccccc1 (stereo not given) | > 100 µM (inactive) | > 100 µM (inactive) | > 100 µM (inactive) | > 100 µM (inactive) | > 100 µM (inactive) | > 100 µM (inactive) | > 100 µM (inactive) | > 100 µM (inactive) | > 100 µM (inactive) | > 100 µM (inactive) | > 100 µM (inactive) | > 100 µM (inactive) | > 100 µM (inactive) | > 100 µM (inactive) | > 100 µM (inactive) | > 100 µM (inactive) | > 100 µM (inactive) | > 100 µM (inactive)
N#CC1C[C@@H]2CC3(CCC2CN1C(=O)c1ccccc1)OCCO3 (stereo not given in full) | > 100 µM (inactive) | > 100 µM (inactive) | > 100 µM (inactive) | > 100 µM (inactive) | > 100 µM (inactive) | > 100 µM (inactive) | 0.607 µM (active) | > 100 µM (inactive) | > 100 µM (inactive) | > 100 µM (inactive) | > 100 µM (inactive) | > 100 µM (inactive) | > 100 µM (inactive) | > 100 µM (inactive) | > 100 µM (inactive) | > 100 µM (inactive) | > 100 µM (inactive) | 
COc1ccccc1C1c2cc3c(cc2OC(O)(CO)C1C(=O)O)OCO3.COc1ccccc1C1c2cc3c(cc2OC2(O)COC(=O)C12)OCO3 (stereo not given) | > 100 µM (inactive) | > 100 µM (inactive) | > 100 µM (inactive) | > 100 µM (inactive) | > 100 µM (inactive) | > 100 µM (inactive) | > 100 µM (inactive) | > 100 µM (inactive) | > 100 µM (inactive) | > 100 µM (inactive) | > 100 µM (inactive) | > 100 µM (inactive) | > 100 µM (inactive) | > 100 µM (inactive) | > 100 µM (inactive) | > 100 µM (inactive) | > 100 µM (inactive) | > 100 µM (inactive)
C=CN1C(=O)OC[C@@H]1c1ccccc1 | > 100 µM (inactive) | > 100 µM (inactive) | > 100 µM (inactive) | > 100 µM (inactive) | > 100 µM (inactive) | > 100 µM (inactive) |  | > 100 µM (inactive) | 83.2 µM (inactive) | > 100 µM (inactive) | > 100 µM (inactive) | > 100 µM (inactive) | 34.5 µM (inactive) | > 100 µM (inactive) | > 100 µM (inactive) | > 100 µM (inactive) | > 100 µM (inactive) | > 100 µM (inactive)
CC(=O)OCC(OC(C)=O)C(OC(C)=O)C(OC(C)=O)C(=O)CNn1c(-c2ccccc2)nc2ccc(Br)cc2c1=O (stereo not given) | > 100 µM (inactive) | > 100 µM (inactive) | > 100 µM (inactive) | > 100 µM (inactive) | > 100 µM (inactive) | > 100 µM (inactive) | > 100 µM (inactive) | > 100 µM (inactive) | > 100 µM (inactive) | > 100 µM (inactive) |  | > 100 µM (inactive) | > 100 µM (inactive) | > 100 µM (inactive) |  | > 100 µM (inactive) | > 100 µM (inactive) | > 100 µM (inactive)
